The kinase profiling compilation of Christmann-Franck et al. (2016)

What was measured:
Assay in all cases: KINOMEscan competition binding
Conditions in all cases: compound 10.0 µM; call rule not given here
[1] = biological target: PIM2 (human) (UniProt Q9P1W9)
[2] = biological target: RPS6KA1 KD1 (human) (UniProt Q15418)
[3] = biological target: LIMK2 (human) (UniProt P53671)
[4] = biological target: CAMK2G (human) (UniProt Q13555)
[5] = biological target: PAK3 (human) (UniProt O75914)
[6] = biological target: MAPK3 (human) (UniProt P27361)
[7] = biological target: STK32B (human) (UniProt Q9NY57)
[8] = biological target: TXK (human) (UniProt P42681)
[9] = biological target: CLK4 (human) (UniProt Q9HAZ1)
[10] = biological target: IGF1R (human) (UniProt P08069)
[11] = biological target: LTK (human) (UniProt P29376)
[12] = biological target: CAMK1G (human) (UniProt Q96NX5)
[13] = biological target: RPS6KA5 KD1 (human) (UniProt O75582)
[14] = biological target: MARK4 (human) (UniProt Q96L34)
[15] = biological target: INSRR (human) (UniProt P14616)
[16] = biological target: CAMKK2 (human) (UniProt Q96RR4)
[17] = biological target: ZAP70 (human) (UniProt P43403)
[18] = biological target: PRKACB (human) (UniProt P22694)
[19] = biological target: ERBB4 (human) (UniProt Q15303)
[20] = biological target: PAK2 (human) (UniProt Q13177)
[21] = biological target: RPS6KA6 KD1 (human) (UniProt Q9UK32)
[22] = biological target: PTK6 (human) (UniProt Q13882)
[23] = biological target: EPHB3 (human) (UniProt P54753)
[24] = biological target: AKT1 (human) (UniProt P31749)
[25] = biological target: CLK3 (human) (UniProt P49761)
[26] = biological target: NEK6 (human) (UniProt Q9HC98)
[27] = biological target: CLK1 (human) (UniProt P49759)
[28] = biological target: TLK2 (human) (UniProt Q86UE8)
[29] = biological target: INSR (human) (UniProt P06213)
[30] = biological target: CAMK2D (human) (UniProt Q13557)
[31] = biological target: DMPK (human) (UniProt Q09013)
[32] = biological target: AKT2 (human) (UniProt P31751)
[33] = biological target: EPHA7 (human) (UniProt Q15375)
[34] = biological target: MAPK11 (human) (UniProt Q15759)
[35] = biological target: MUSK (human) (UniProt O15146)
[36] = biological target: CDC42BPA (human) (UniProt Q5VT25)
[37] = biological target: STK25 (human) (UniProt O00506)
[38] = biological target: PKMYT1 (human) (UniProt Q99640)
[39] = biological target: ADCK3 (human) (UniProt Q8NI60)
[40] = biological target: STK32C (human) (UniProt Q86UX6)

Chain of CAMKK2 (human) (Q96RR4 whole entry, looked up): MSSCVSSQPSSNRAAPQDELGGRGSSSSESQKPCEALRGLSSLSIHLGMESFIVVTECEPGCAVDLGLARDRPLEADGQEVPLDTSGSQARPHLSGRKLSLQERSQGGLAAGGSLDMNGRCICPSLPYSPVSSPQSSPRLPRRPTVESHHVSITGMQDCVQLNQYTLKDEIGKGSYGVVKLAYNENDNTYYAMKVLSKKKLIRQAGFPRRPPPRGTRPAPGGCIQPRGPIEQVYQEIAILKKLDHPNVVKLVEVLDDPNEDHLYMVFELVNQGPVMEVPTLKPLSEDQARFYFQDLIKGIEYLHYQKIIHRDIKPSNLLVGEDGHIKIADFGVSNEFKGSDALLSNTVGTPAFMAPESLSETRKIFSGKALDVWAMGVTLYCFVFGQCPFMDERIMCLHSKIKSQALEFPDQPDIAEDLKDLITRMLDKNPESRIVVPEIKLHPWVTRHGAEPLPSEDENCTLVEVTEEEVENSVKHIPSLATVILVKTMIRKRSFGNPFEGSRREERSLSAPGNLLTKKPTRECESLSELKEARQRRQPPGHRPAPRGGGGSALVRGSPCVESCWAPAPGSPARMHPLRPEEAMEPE
Chain of RPS6KA5 KD1 (human) (O75582 whole entry, looked up): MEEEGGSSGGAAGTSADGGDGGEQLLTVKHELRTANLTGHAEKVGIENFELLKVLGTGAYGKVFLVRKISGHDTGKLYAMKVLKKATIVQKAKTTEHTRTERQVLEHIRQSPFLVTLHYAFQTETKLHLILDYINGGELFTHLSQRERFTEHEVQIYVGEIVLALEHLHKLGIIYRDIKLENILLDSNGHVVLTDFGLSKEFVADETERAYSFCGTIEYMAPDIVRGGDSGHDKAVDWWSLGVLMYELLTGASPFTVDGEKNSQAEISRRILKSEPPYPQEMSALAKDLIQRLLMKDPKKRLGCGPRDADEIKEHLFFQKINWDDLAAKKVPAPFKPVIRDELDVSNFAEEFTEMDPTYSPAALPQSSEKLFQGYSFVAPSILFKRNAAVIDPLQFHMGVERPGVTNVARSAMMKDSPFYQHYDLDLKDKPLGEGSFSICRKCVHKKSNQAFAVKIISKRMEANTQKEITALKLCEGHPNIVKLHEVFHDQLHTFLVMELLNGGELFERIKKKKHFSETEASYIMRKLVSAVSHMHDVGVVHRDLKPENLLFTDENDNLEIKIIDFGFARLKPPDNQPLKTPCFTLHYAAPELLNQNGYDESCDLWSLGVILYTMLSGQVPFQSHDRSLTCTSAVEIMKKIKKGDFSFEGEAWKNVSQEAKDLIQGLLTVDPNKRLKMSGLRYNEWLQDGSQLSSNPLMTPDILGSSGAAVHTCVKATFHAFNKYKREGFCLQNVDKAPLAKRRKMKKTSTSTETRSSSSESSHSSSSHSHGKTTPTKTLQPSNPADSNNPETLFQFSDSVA
Chain of CAMK2D (human) (Q13557 whole entry, looked up): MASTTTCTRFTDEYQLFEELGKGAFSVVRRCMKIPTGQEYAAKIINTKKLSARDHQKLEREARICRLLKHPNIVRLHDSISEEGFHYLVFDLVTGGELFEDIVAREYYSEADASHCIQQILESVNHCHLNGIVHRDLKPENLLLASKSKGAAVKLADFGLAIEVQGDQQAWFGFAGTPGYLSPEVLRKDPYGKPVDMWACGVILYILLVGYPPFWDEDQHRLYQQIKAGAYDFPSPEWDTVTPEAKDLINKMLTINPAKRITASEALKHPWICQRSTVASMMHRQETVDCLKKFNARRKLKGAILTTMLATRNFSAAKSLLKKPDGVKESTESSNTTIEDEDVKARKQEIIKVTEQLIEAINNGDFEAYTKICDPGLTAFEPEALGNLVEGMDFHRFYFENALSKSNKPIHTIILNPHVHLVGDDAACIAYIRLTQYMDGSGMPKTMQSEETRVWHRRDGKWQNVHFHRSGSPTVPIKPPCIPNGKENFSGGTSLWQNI
Chain of INSR (human) (P06213 whole entry, looked up): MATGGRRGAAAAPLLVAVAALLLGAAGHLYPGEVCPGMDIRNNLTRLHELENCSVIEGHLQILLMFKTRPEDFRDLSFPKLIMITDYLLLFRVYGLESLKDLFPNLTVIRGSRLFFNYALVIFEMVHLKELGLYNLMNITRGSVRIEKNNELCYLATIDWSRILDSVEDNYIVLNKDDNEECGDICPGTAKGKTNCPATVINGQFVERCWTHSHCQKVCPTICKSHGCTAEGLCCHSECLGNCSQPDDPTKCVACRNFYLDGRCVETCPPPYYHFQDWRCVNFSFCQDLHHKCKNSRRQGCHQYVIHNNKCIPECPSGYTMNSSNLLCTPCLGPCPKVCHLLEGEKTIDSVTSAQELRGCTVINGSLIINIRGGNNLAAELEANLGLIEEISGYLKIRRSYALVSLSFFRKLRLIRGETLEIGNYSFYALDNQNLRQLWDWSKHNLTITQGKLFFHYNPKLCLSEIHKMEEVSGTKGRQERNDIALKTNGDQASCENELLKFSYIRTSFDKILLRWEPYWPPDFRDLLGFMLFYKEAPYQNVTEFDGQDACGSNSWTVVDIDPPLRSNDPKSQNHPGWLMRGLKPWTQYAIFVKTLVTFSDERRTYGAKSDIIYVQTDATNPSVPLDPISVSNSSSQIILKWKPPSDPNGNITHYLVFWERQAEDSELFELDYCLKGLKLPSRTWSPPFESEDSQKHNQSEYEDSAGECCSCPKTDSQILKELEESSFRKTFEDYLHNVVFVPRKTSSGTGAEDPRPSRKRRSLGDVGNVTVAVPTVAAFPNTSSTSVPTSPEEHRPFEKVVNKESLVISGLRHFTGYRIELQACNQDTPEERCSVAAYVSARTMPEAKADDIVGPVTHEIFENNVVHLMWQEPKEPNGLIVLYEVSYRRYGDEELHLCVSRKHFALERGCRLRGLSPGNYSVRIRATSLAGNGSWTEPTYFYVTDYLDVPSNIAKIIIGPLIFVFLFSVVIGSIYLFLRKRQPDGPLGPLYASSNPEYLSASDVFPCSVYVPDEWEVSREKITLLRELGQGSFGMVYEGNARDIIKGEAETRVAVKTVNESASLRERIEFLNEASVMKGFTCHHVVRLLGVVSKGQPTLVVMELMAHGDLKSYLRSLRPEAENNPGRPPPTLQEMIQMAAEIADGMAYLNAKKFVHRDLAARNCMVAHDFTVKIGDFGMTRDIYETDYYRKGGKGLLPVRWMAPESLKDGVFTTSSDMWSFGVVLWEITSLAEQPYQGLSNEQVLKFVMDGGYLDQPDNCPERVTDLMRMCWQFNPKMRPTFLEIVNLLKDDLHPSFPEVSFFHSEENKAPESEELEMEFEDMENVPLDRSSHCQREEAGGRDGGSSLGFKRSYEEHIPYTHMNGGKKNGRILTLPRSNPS
Chain of PIM2 (human) (Q9P1W9 whole entry, looked up): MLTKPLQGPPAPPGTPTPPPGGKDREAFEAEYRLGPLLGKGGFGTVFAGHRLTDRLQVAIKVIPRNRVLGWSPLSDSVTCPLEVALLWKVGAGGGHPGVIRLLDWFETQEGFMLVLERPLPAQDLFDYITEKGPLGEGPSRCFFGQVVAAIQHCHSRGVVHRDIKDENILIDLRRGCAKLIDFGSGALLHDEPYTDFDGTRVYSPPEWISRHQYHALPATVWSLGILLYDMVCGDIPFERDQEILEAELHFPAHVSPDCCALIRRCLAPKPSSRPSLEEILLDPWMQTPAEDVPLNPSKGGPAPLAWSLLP
Chain of CLK4 (human) (Q9HAZ1 whole entry, looked up): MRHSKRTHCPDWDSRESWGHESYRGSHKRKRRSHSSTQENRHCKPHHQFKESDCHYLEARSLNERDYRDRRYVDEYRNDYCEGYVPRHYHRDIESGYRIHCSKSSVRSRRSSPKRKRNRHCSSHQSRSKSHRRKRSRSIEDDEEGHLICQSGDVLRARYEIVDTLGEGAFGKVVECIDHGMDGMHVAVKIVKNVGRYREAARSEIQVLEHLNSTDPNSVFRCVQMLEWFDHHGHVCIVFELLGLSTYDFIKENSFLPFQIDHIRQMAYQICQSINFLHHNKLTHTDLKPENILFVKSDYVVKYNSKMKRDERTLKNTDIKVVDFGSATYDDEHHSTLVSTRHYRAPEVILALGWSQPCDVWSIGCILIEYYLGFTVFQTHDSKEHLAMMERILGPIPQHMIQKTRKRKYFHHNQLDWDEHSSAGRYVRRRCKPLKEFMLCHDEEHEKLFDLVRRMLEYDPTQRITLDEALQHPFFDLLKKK
Chain of RPS6KA6 KD1 (human) (Q9UK32 whole entry, looked up): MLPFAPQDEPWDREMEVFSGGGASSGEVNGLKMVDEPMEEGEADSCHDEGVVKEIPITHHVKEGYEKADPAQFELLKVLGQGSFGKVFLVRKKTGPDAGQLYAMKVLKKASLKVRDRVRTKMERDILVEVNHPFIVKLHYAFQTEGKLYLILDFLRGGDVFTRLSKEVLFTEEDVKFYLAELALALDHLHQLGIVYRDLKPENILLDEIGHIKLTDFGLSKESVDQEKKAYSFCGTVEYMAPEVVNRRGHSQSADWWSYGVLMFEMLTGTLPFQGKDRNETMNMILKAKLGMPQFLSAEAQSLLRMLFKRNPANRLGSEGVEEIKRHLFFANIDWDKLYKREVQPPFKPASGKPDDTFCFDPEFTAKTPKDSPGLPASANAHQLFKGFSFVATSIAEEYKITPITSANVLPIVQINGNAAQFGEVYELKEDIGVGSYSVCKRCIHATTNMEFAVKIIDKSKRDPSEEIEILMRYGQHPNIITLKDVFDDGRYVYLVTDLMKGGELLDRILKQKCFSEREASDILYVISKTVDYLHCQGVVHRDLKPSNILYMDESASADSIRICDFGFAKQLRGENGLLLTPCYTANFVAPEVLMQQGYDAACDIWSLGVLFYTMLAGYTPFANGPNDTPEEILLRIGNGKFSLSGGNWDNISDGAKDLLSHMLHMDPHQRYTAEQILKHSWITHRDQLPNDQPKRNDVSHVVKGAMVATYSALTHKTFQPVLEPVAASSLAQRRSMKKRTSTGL

Row | kinase still bound, per cent of control [1] | kinase still bound, per cent of control [2] | kinase still bound, per cent of control [3] | kinase still bound, per cent of control [4] | kinase still bound, per cent of control [5] | kinase still bound, per cent of control [6] | kinase still bound, per cent of control [7] | kinase still bound, per cent of control [8] | kinase still bound, per cent of control [9] | kinase still bound, per cent of control [10] | kinase still bound, per cent of control [11] | kinase still bound, per cent of control [12] | kinase still bound, per cent of control [13] | kinase still bound, per cent of control [14] | kinase still bound, per cent of control [15] | kinase still bound, per cent of control [16] | kinase still bound, per cent of control [17] | kinase still bound, per cent of control [18] | kinase still bound, per cent of control [19] | kinase still bound, per cent of control [20] | Structure (SMILES) | further results
1 | no effect (inactive) | no effect (inactive) | no effect (inactive) | no effect (inactive) | no effect (inactive) | no effect (inactive) | no effect (inactive) | no effect (inactive) | no effect (inactive) | no effect (inactive) | no effect (inactive) | no effect (inactive) | no effect (inactive) | no effect (inactive) | no effect (inactive) | no effect (inactive) | no effect (inactive) | no effect (inactive) | no effect (inactive) | no effect (inactive) | Cc1ccc(C(=O)Nc2cccc(C(C)(C)C)c2)cc1-c1ccc(C(=O)NCC2CC2)cc1 | kinase still bound, per cent of control [21]: no effect (inactive); kinase still bound, per cent of control [22]: no effect (inactive); kinase still bound, per cent of control [23]: no effect (inactive); kinase still bound, per cent of control [24]: no effect (inactive); kinase still bound, per cent of control [25]: no effect (inactive); kinase still bound, per cent of control [26]: no effect (inactive); kinase still bound, per cent of control [27]: no effect (inactive); kinase still bound, per cent of control [28]: no effect (inactive); kinase still bound, per cent of control [29]: no effect (inactive); kinase still bound, per cent of control [30]: no effect (inactive); kinase still bound, per cent of control [31]: no effect (inactive); kinase still bound, per cent of control [32]: no effect (inactive); kinase still bound, per cent of control [33]: no effect (inactive); kinase still bound, per cent of control [34]: 0%; kinase still bound, per cent of control [35]: no effect (inactive); kinase still bound, per cent of control [36]: no effect (inactive); kinase still bound, per cent of control [37]: no effect (inactive); kinase still bound, per cent of control [38]: no effect (inactive); kinase still bound, per cent of control [39]: no effect (inactive); kinase still bound, per cent of control [40]: no effect (inactive)
2 | no effect (inactive) | no effect (inactive) | no effect (inactive) | no effect (inactive) | no effect (inactive) | no effect (inactive) | no effect (inactive) | no effect (inactive) | no effect (inactive) | no effect (inactive) | no effect (inactive) | no effect (inactive) | no effect (inactive) | no effect (inactive) | no effect (inactive) | no effect (inactive) | no effect (inactive) | no effect (inactive) | no effect (inactive) | no effect (inactive) | c1ccc(-c2n[nH]cc2-c2ccnc3ccccc23)nc1 | kinase still bound, per cent of control [21]: no effect (inactive); kinase still bound, per cent of control [22]: no effect (inactive); kinase still bound, per cent of control [23]: no effect (inactive); kinase still bound, per cent of control [24]: no effect (inactive); kinase still bound, per cent of control [25]: no effect (inactive); kinase still bound, per cent of control [26]: no effect (inactive); kinase still bound, per cent of control [27]: no effect (inactive); kinase still bound, per cent of control [28]: no effect (inactive); kinase still bound, per cent of control [29]: no effect (inactive); kinase still bound, per cent of control [30]: no effect (inactive); kinase still bound, per cent of control [31]: no effect (inactive); kinase still bound, per cent of control [32]: no effect (inactive); kinase still bound, per cent of control [33]: no effect (inactive); kinase still bound, per cent of control [34]: no effect (inactive); kinase still bound, per cent of control [35]: no effect (inactive); kinase still bound, per cent of control [36]: no effect (inactive); kinase still bound, per cent of control [37]: no effect (inactive); kinase still bound, per cent of control [38]: no effect (inactive); kinase still bound, per cent of control [39]: no effect (inactive); kinase still bound, per cent of control [40]: no effect (inactive)
3 | no effect (inactive) | 0% | no effect (inactive) | 0.2% | 0% | 10.8% | 15.4% | 0% | 0% | 0% | 0% | no effect (inactive) | 0% | 0% | 0% | 0.1% | no effect (inactive) | 7% | 34.7% | no effect (inactive) | CCS(=O)(=O)Nc1ccc2c(c1)[C@H](/C(=N/c1ccc(CN3CCCCC3)cc1)c1ccccc1)C(=O)N2 | kinase still bound, per cent of control [21]: 0%; kinase still bound, per cent of control [22]: 1.8%; kinase still bound, per cent of control [23]: 7.2%; kinase still bound, per cent of control [24]: no effect (inactive); kinase still bound, per cent of control [25]: 2.3%; kinase still bound, per cent of control [26]: no effect (inactive); kinase still bound, per cent of control [27]: 0%; kinase still bound, per cent of control [28]: 1.5%; kinase still bound, per cent of control [29]: 0%; kinase still bound, per cent of control [30]: 2%; kinase still bound, per cent of control [31]: no effect (inactive); kinase still bound, per cent of control [32]: no effect (inactive); kinase still bound, per cent of control [33]: 0%; kinase still bound, per cent of control [34]: no effect (inactive); kinase still bound, per cent of control [35]: 0%; kinase still bound, per cent of control [36]: no effect (inactive); kinase still bound, per cent of control [37]: 0.4%; kinase still bound, per cent of control [38]: no effect (inactive); kinase still bound, per cent of control [39]: 27.2%; kinase still bound, per cent of control [40]: no effect (inactive)
